Data: ChEMBL document CHEMBL6096672, “In Silico Enabled Discovery of KAI-11101, a Preclinical DLK Inhibitor for the Treatment of Neurodegenerative Disease and Neuronal Injury” (J Med Chem, 2025)

How the values were obtained:
[1] = Protection against paclitaxel-induced axon degeneration in C57/Bl6 mouse DRG neurons at 0.74 uM measured after 72 hrs by immunofluorescence based analysis relative to control; format: functional; conditions: C57/Bl6, DRG neuron
[2] = Ratio of unbound drug concentration in brain to plasma of CD-1 mouse at 5 to 75 mg/kg, po; format: ADME, organism-based; conditions: brain and plasma, dose 5-75 mg/kg, read-out: K(p,uu,brain)
[3] = Half life in IV-dosed dog; format: ADME, Canis lupus familiaris; conditions: in vivo
[4] = Oral bioavailability in dog; format: ADME, organism-based, Canis lupus familiaris; conditions: in vivo
[5] = Drug metabolism in dog hepatocytes assessed as formation of N-methylated metabolites; format: ADME, cell-based, Canis lupus familiaris, Hepatocyte
[6] = Half life in IV-dosed rat; format: ADME; conditions: in vivo
[7] = Half life in IV-dosed mouse; format: ADME; conditions: in vivo
[8] = Clearance in IV-dosed rat; format: ADME; conditions: in vivo
[9] = Oral bioavailability in mouse; format: ADME, organism-based; conditions: in vivo
[10] = Drug metabolism in cynomolgous monkey hepatocytes assessed as formation of N-methylated metabolites; format: ADME, cell-based, Macaca fascicularis, Hepatocyte; conditions: cynomolgus monkey
[11] = Drug metabolism in human hepatocytes assessed as formation of N-methylated metabolites; format: ADME, cell-based, Hepatocyte
[12] = Ratio of unbound drug concentration in brain to plasma of rat; format: ADME; conditions: brain and plasma, read-out: K(p,uu,brain)
[13] = Protection against paclitaxel-induced axon degeneration in C57/Bl6 mouse DRG neurons measured after 72 hrs by immunofluorescence based analysis; format: functional, cell-based; conditions: drg neuron
[14] = Unbound fraction in mouse brain at 3 to 75 mg/kg, po measured after 2 hrs; format: ADME, organism-based; conditions: in vivo, dose 3-75 mg/kg
[15] = Cytotoxicity against human HepG2 cells; format: toxicity, cell-based
[16] = Total unbound drug concentration in mouse brain at 3 to 75 mg/kg, po measured after 2 hrs; format: ADME, organism-based; conditions: in vivo, dose 3-75 mg/kg
[17] = Total drug concentration in mouse brain at 3 to 75 mg/kg, po measured after 2 hrs; format: ADME, organism-based; conditions: dose 3-75 mg/kg, read-out: Ct
[18] = In vivo inhibition of DLK in mouse cerebellum at 3 to 75 mg/kg, po measured after 2 hrs; format: functional, organism-based
[19] = Intrinsic clearance in mouse liver microsomes; format: ADME, Microsome; conditions: read-out: CLH
CYP3A [20] = target: T1, CYP3A (Homo sapiens, UniProt P08684+P20815+P24462+Q9HB55); test: Binding affinity to CYP3A in human liver microsomes assessed as inactivation constant; format: ADME, Microsome
[21] = Inhibition of GST-tagged LZK (1 to 966 residues)(unknown origin) using MKK4 as substrate preincubated for 60 mins followed by substrate/ATP addition measured after 30 mins by HTRF assay; set-up: species or system Homo sapiens
[22] = Drug metabolism in PO-dosed dog plasma assessed as formation of N-methylated metabolites; format: ADME, Canis lupus familiaris
[23] = Clearance in IV-dosed cynomolgous monkey; format: ADME, Macaca fascicularis; conditions: cynomolgus monkey, in vivo
[24] = Oral bioavailability in rat; format: ADME, organism-based; conditions: in vivo
[25] = Volume of distribution at steady state in IV-dosed rat; format: ADME; conditions: in vivo, read-out: Vdss
CYP3A [26] = target: T1, CYP3A; test: Binding affinity to CYP3A in human liver microsomes assessed as inhibition constant; format: ADME, Microsome
[27] = Oral bioavailability in cynomolgous monkey; format: ADME, organism-based, Macaca fascicularis; conditions: cynomolgus monkey, in vivo
[28] = Volume of distribution at steady state in IV-dosed dog; format: ADME, Canis lupus familiaris; conditions: in vivo, read-out: Vdss
[29] = Inhibition of DLK in C57/Bl6 mouse DRG neuron model of paclitaxel-induced axon degeneration assessed as decrease in p-cJun level measured after 20 hrs by immunofluorescence based analysis; format: cell-based
[30] = Half life in IV-dosed cynomolgous monkey; format: ADME, Macaca fascicularis; conditions: cynomolgus monkey, in vivo
[31] = Intrinsic clearance in human liver microsomes; format: ADME, Microsome; conditions: read-out: CLH
[32] = target: Voltage-gated inwardly rectifying potassium channel KCNH2 (Homo sapiens, UniProt Q12809); test: Inhibition of hERG by patch-clamp method; format: toxicity
[33] = Volume of distribution at steady state in IV-dosed mouse; format: ADME; conditions: in vivo, read-out: Vdss
[34] = Volume of distribution at steady state in IV-dosed cynomolgous monkey; format: ADME, Macaca fascicularis; conditions: cynomolgus monkey, in vivo, read-out: Vdss
CYP3A4 = CYP3A4 (Homo sapiens, UniProt P08684); test: Time dependent inhibition of CYP3A4 (unknown origin) at 30 uM incubated for 30 mins relative to control; format: ADME; conditions: read-out: TDI
[35] = Clearance in IV-dosed mouse; format: ADME; conditions: in vivo
[36] = Clearance in IV-dosed dog; format: ADME, Canis lupus familiaris; conditions: in vivo
[37] = Drug metabolism in rat hepatocytes assessed as formation of N-methylated metabolites; format: ADME, cell-based, Hepatocyte
[38] = Intrinsic clearance in dog liver microsomes; format: ADME, Canis lupus familiaris, Microsome; conditions: read-out: CLH
[39] = Inhibition of human DLK transfected in HEK293-T-REx cells assessed as decrease in JNK phosphorylation incubated for 5 hrs by HTRF assay; format: cell-based
[40] = Inhibition of GST-tagged DLK (1 to 520 residues)(unknown origin) using MKK4 as substrate preincubated for 60 mins followed by substrate/ATP addition measured after 30 mins by HTRF assay; set-up: species or system Homo sapiens

Voltage-gated inwardly rectifying potassium channel KCNH2, sequence (Q12809 whole entry): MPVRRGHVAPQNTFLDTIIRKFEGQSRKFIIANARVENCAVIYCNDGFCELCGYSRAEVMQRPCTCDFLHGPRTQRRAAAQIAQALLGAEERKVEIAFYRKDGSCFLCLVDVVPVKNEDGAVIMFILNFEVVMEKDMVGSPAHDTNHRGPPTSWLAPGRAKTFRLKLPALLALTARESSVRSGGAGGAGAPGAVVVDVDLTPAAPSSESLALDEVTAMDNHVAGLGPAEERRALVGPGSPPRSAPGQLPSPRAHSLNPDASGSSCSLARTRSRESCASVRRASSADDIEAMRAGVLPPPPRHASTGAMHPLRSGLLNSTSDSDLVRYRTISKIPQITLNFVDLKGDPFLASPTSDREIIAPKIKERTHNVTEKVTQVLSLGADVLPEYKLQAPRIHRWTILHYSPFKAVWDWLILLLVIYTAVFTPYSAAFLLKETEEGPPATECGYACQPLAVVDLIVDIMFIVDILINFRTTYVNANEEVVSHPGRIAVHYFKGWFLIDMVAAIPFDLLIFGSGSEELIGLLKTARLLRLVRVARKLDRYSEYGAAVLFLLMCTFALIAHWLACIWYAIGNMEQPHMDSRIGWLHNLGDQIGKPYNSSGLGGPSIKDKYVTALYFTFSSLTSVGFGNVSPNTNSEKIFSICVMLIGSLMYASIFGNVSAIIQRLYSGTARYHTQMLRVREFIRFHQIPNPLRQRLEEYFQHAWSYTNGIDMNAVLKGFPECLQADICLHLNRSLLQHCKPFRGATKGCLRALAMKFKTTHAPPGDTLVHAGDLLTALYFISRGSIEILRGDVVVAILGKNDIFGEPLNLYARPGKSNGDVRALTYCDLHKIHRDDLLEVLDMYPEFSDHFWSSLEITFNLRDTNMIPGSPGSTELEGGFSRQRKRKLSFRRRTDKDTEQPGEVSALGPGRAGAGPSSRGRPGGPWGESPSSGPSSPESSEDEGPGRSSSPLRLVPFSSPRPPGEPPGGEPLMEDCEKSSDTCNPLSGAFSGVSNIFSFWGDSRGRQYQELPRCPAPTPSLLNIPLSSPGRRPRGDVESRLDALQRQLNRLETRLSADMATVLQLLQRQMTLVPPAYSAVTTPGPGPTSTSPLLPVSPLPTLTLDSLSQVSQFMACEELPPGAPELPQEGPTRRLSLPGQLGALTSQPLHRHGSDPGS
CYP3A4, sequence (P08684 whole entry): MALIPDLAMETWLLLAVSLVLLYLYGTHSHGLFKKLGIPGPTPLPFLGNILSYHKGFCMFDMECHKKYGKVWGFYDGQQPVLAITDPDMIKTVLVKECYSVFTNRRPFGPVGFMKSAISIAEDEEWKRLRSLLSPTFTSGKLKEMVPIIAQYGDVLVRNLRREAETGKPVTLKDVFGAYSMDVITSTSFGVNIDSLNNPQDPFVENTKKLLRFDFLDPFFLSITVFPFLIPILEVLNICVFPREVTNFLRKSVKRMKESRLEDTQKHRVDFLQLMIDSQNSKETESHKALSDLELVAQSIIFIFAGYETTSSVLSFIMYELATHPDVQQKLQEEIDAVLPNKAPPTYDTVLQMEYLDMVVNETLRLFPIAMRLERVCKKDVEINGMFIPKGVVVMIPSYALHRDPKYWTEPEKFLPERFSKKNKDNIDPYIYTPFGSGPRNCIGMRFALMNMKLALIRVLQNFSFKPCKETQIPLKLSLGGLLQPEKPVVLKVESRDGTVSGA

Kp uu [2]: 0.3
half-life [3]: 396 min
bioavailability [4]: 81%
Drug metabolism [5]: metabolite_detected
half-life [6]: 432 min
half-life [7]: 288 min
clearance [8]: 8.3 mL/min/kg
bioavailability [9]: 53%
Drug metabolism [10]: metabolite_detected
Drug metabolism [11]: metabolite_detected
Kp uu [12]: 0.6
EC50 [13]: 363 nM
Fu [14]: 1.5%
Drug uptake(free) [16]: 14.5 ng/g
concentration at 2 h [17]: 1000 ng/g
IC50 [18]: 31 nM
microsomal CLint [19]: 18 µL/min/mg
kinact (CYP3A [20]): 0.00117 s⁻¹
Ki [21]: 15 nM
Drug metabolism [22]: metabolite_detected
clearance [23]: 5.5 mL/min/kg
bioavailability [24]: 57%
Vd [25]: 4.3 L/kg
Ki (CYP3A [26]): 170 µM
bioavailability [27]: 52%
Vd [28]: 8.8 L/kg
IC50 [29]: 95 nM
half-life [30]: 720 min
microsomal CLint [31]: < 3 µL/min/mg
Vd [33]: 1.6 L/kg
Vd [34]: 4.8 L/kg
inhibition at 0.5 h, 30 µM (CYP3A4): 27.5%
clearance [35]: 5.3 mL/min/kg
clearance [36]: 24 mL/min/kg
Drug metabolism [37]: metabolite_detected
microsomal CLint [38]: 5.8 µL/min/mg
IC50 [39]: 51 nM
Ki [40]: 0.69 nM
Structure (SMILES): CCn1nc(-c2cnc(N)c(OC(F)F)c2)c2ccn([C@@H]3CCC(F)(F)C[C@@H]3OC)c(=O)c21
Emax at 0.74 µM [1]: 72%
IC50 [15]: 52 µM
IC50 [32]: 9 µM
